Our source for the TGI and GI50 values is PubChem BioAssay (NCI).

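Values below derive from 48-hour exposures of cells grown in 96-well plates, with endpoints linearly interpolated between the two concentrations bracketing the appropriate inhibition level. The concentration for 50% growth inhibition is given as GI50. The concentration for full growth arrest is given as TGI.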 Bounds are passed on as bounds.

Common to all, as to assay: inhibition of tumour cell growth, NCI panel, 48 h
Assay [1] relates to MDA-MB-231 breast.
The test system of assay [2] is MOLT-4 leukemia.
Assay [3] relates to A498 renal.
Assay [4] relates to HOP-62 NSCLC.
Assay [5] concerns NCI-H522 lung.
The subject of assay [6] is MDA-MB-435.
Assay [7] relates to OVCAR-4 ovarian.
The test system of assay [8] is BT-549 breast.
The test system of assay [9] is COLO 205 colon.
Assay [10] has as its system SF-295 CNS.

With `Cn1c(=O)c2[nH]c(SCCN3CCOCC3)nc2n(C)c1=S`, the TGI in assay [1], in [2], in assay [3], in assay [4], in [5] and in [6] was above 100 µM throughout. Also, the TGI in assay [7], in [8], in [9] and in [10] was above 100 µM throughout.

On to `O=C(Nc1ccc(F)cc1F)c1cc(Cl)ccc1O`, for which the GI50 is 1.74 µM in [1]; 0.257 µM in [3]; 1.2 µM in assay [4]; 0.974 µM in assay [5]; 1.21 µM in [6]; 0.636 µM in assay [7]. The GI50 was 0.62 µM in assay [8], 7.79 µM in assay [9] and 1.56 µM in assay [10]. Further, the TGI in assay [1] is 7.48 µM; in assay [3] it was 0.902 µM; in [4], 4.37 µM; in [5] it was 10.8 µM; in assay [6], 8.53 µM; in [7], above 100 µM. In addition, the TGI worked out at 3.31 µM in assay [8], 22.5 µM in [9] and 3.16 µM in assay [10].

For the compound `O=C(/C=C/c1ccc(O)c(O)c1)NCc1c[nH]c2ccccc12`, the GI50 in assay [1] is 75.9 µM; in [2] it was 25.8 µM; in assay [3] it was 32.4 µM; in assay [4] it was 44.7 µM; in assay [5], 44.9 µM; in assay [6], 41.9 µM. In addition, the GI50 is above 100 µM in assay [7], 78.5 µM in assay [8], 49 µM in assay [9] and 62.4 µM in assay [10]. Besides, the TGI in assay [1], in assay [2], in [3], in assay [4], in assay [5] and in [6] was above 100 µM in each case. Moreover, the TGI in assay [7], in assay [8], in [9] and in [10] was above 100 µM each time.

With `C[Si](C)(c1ccc(C(=O)O)cc1)c1ccc(C(=O)O)cc1`, the TGI in assay [1], in assay [2], in assay [3], in [4], in [5] and in assay [6] was above 100 µM throughout. For the same compound, the TGI in [7], in [8], in assay [9] and in [10] was above 100 µM throughout.

For `CCCCCN(CCCCC)CC(O)c1cc(Cl)ccc1OC` (stereo not drawn), the GI50 in assay [1] is 5.38 µM; in [2], 6.94 µM; in assay [3], 11.6 µM; in [4], 12 µM; in assay [5], 1.98 µM; in assay [6] it was 8.53 µM. Besides, the GI50 in assay [7] is 3.17 µM; in assay [8] it was 15.9 µM; in assay [9] it was 5.11 µM; in assay [10], 1.38 µM. For the same compound, the TGI in assay [1] amounted to 20 µM; in assay [2], 28.7 µM; in [3] it was 29.3 µM; in [4], 26.7 µM; in [5], 15.2 µM; in assay [6] it was 21.1 µM. Further, the TGI in assay [7] stood at 16 µM; in assay [8], 38.3 µM; in [9], 18.6 µM; in assay [10], 12.6 µM.

On to `O=[N+]([O-])c1nccn1CC(O)CN1CCCCC1` (stereo not drawn), for which the TGI in assay [1], in [2], in assay [3], in assay [4], in assay [5] and in [6] was above 100 µM each time. In addition, the TGI in assay [7], in [8], in [9] and in assay [10] was above 100 µM in each case.

Consider `CCN1CCN(c2cc(C)nc(N(CCCNc3ccnc4cc(Cl)ccc34)Cc3ccc4c(c3)OCO4)n2)CC1`, for which the GI50 in [1] is 1.93 µM; in assay [2], 2.84 µM; in assay [3] it was 3.66 µM; in assay [4], 2.73 µM; in assay [5], 2.03 µM; in assay [6], 1.77 µM. Besides, the GI50 in [7] was 3.05 µM; in [8], 2.72 µM; in [9] it was 1.72 µM; in assay [10] it was 1.91 µM. For the same compound, the TGI in assay [1] was 4.44 µM; in assay [2], above 100 µM; in assay [3], 20.8 µM; in [4] it was 31.6 µM; in [5], 4.76 µM; in assay [6], 3.3 µM. In addition, the TGI in assay [7] amounted to 25.1 µM; in [8], 8.5 µM; in assay [9] it was 3.39 µM; in assay [10], 3.82 µM.

For `CCCCCCCCOC(=O)c1c(C)[nH]c(/C=C2\N=C(c3ccc[nH]3)C=C2OC)c1C`, the GI50 in assay [1] is below 0.0182 µM; in assay [2] it was below 0.0201 µM; in assay [3], 0.19 µM; in assay [4], 0.23 µM; in [5], 0.0316 µM; in assay [6] it was 0.0226 µM. Moreover, the GI50 is 0.034 µM in [7], 0.164 µM in [8], 0.0846 µM in assay [9] and 0.0779 µM in assay [10]. The TGI in assay [1] came to 0.517 µM; in [2], 18.5 µM; in [3], 2 µM; in assay [4], 11.7 µM; in [5] it was 4.02 µM; in assay [6] it was 1.41 µM. Besides, the TGI in assay [7] is 16.8 µM; in assay [8] it was 14.4 µM; in assay [9], 2.62 µM; in assay [10] it was 0.639 µM.

Consider `NS(=O)(=O)c1ccc(N=Nc2c(O)[nH]c3ccc(C(=O)NCc4ccncc4)cc23)cc1`, for which the GI50 in [1], in assay [2], in assay [3], in assay [4], in [5] and in assay [6] was above 25 µM in each case. Moreover, the GI50 in assay [7] was above 25 µM; in assay [8], above 9.38 µM; in assay [9], above 25 µM; in [10] it was above 25 µM. Also, the TGI in assay [1], in [2], in assay [3], in assay [4], in assay [5] and in assay [6] was above 25 µM in each case. Also, the TGI in assay [7], in [8], in [9] and in assay [10] was above 25 µM throughout.
